Experimental data from US9211310B2, “Use of a Chinese medicine composition in preparing medicaments for treating secondary prevention of myocardial infarction” (TASLY PHARMACEUTICAL GROUP CO., LTD, priority 2010, dated 2015).

System: patients after acute myocardial infarction
Test: TCM symptom score, total and single (chest pain, chest tightness, short breath, fatigue, palpitation, spontaneous perspiration, pale complexion), same clinical trial
Type: in vivo, human
Set-up: total score of TCM symptom, Mean / total score of TCM symptom, Min / total score of TCM symptom, Max / total score of TCM symptom, Md / change of total score of TCM symptom, Mean / change of total score of TCM symptom, Max / change of total score of TCM symptom, Md: scale not given here
Settings: PP
Excerpt: 3508 patients who were in accordance with the diagnostic standards of AMI for 28 days to 2 years and differentiated as Qi deficiency and blood stagnation syndrome by TCM were studied. 0.5 g Chinese medicine composition prepared by the method of EXAMPLE 1 (Coded as QSYQ) was administrated half an hour after meal, 3 times per day.
They included the overall survival time, angina pectoris score, TCM symptom score and life quality score, where angina pectoris score, TCM symptom score and life quality score were evaluated at randomization, in 1st, 3rd, 6th, 9th, 12th month after treatment and 18th month after follow-up.
The analysis method referred to the angina pectoris score.

CC(=O)Oc1ccccc1C(=O)O [Control group, aspirine]
pale complexion score 3, percent of patients (Baseline): (3.88%) | short breath score 0, % of patients (Baseline): (14.48%) | short breath score 0, number of patients (Baseline): 213 | short breath score 3, % of patients (Baseline): (51.12%) | short breath score 3, number of patients (Baseline): 752 | short breath score 6, % of patients (Baseline): (32.56%) | short breath score 6, number of patients (Baseline): 479 | short breath score 9, % of patients (Baseline): (1.84%) | short breath score 9, number of patients (Baseline): 27 | distribution of total score of TCM symptom: Medium, number of patients (Follow-up): 212 | distribution of total score of TCM symptom: Medium, percentage of patients (Follow-up): (15.23%) | distribution of total score of TCM symptom: Mild, number of patients (Follow-up): 1177 | distribution of total score of TCM symptom: Mild, percentage of patients (Follow-up): (84.55%) | distribution of total score of TCM symptom: Severe, number of patients (Follow-up): 3 | distribution of total score of TCM symptom: Severe, percentage of patients (Follow-up): (0.22%) | fatigue score 0, % of patients (Follow-up): (42.80%) | fatigue score 0, number of patients (Follow-up): 597 | fatigue score 2, % of patients (Follow-up): (52.97%) | fatigue score 2, number of patients (Follow-up): 739 | fatigue score 4, % of patients (Follow-up): (4.01%) | fatigue score 4, number of patients (Follow-up): 56 | fatigue score 6, % of patients (Follow-up): (0.22%) | fatigue score 6, number of patients (Follow-up): 3 | pale complexion score 0, number of patients (Follow-up): 862 | pale complexion score 0, percent of patients (Follow-up): (61.79%) | pale complexion score 1, number of patients (Follow-up): 452 | pale complexion score 1, percent of patients (Follow-up): (32.40%) | pale complexion score 2, number of patients (Follow-up): 75 | pale complexion score 2, percent of patients (Follow-up): (5.38%) | pale complexion score 3, number of patients (Follow-up): 6 | pale complexion score 3, percent of patients (Follow-up): (0.43%) | palpitation score 0, number of patients (Follow-up): 613 | palpitation score 0, percent of patients (Follow-up): (43.94%) | palpitation score 2, number of patients (Follow-up): 683 | palpitation score 2, percent of patients (Follow-up): (48.96%) | palpitation score 4, number of patients (Follow-up): 94 | palpitation score 4, percent of patients (Follow-up): (6.74%) | palpitation score 6, number of patients (Follow-up): 5 | palpitation score 6, percent of patients (Follow-up): (0.36%) | short breath score 0, % of patients (Follow-up): (35.34%) | short breath score 0, number of patients (Follow-up): 493 | short breath score 2, % of patients (Follow-up): (0.07%) | short breath score 2, number of patients (Follow-up): 1 | short breath score 3, % of patients (Follow-up): (54.70%) | short breath score 3, number of patients (Follow-up): 763 | short breath score 6, % of patients (Follow-up): (9.68%) | short breath score 6, number of patients (Follow-up): 135 | short breath score 9, % of patients (Follow-up): (0.22%) | short breath score 9, number of patients (Follow-up): 3 | spontaneous perspiration score 0, number of patients (Follow-up): 750 | spontaneous perspiration score 0, percent of patients (Follow-up): (53.80%) | spontaneous perspiration score 1, number of patients (Follow-up): 578 | spontaneous perspiration score 1, percent of patients (Follow-up): (41.46%) | spontaneous perspiration score 2, number of patients (Follow-up): 62 | spontaneous perspiration score 2, percent of patients (Follow-up): (4.45%) | spontaneous perspiration score 3, number of patients (Follow-up): 4 | spontaneous perspiration score 3, percent of patients (Follow-up): (0.29%) | total score of TCM symptom, Max (Follow-up): 32.00 | total score of TCM symptom, Md (Follow-up): 7.00 | total score of TCM symptom, Mean (Follow-up): 7.73 | total score of TCM symptom, Min (Follow-up): 0.00 | change of fatigue 0, % of patients (Follow-up-baseline): (42.99%) | change of fatigue 0, number of patients (Follow-up-baseline): 598 | change of fatigue 2, % of patients (Follow-up-baseline): (37.60%) | change of fatigue 2, number of patients (Follow-up-baseline): 523 | change of fatigue 4, % of patients (Follow-up-baseline): (11.00%) | change of fatigue 4, number of patients (Follow-up-baseline): 153 | change of fatigue 6, % of patients (Follow-up-baseline): (2.01%) | change of fatigue 6, number of patients (Follow-up-baseline): 28 | change of fatigue −2, % of patients (Follow-up-baseline): (6.18%) | change of fatigue −2, number of patients (Follow-up-baseline): 86 | change of fatigue −4, % of patients (Follow-up-baseline): (0.22%) | change of fatigue −4, number of patients (Follow-up-baseline): 3 | change of pale complexion 0, number of patients (Follow-up-baseline): 932 | change of pale complexion 0, percent of patients (Follow-up-baseline): (67.29%) | change of pale complexion 1, number of patients (Follow-up-baseline): 414 | change of pale complexion 1, percent of patients (Follow-up-baseline): (29.89%) | change of pale complexion −1, number of patients (Follow-up-baseline): 39 | change of pale complexion −1, percent of patients (Follow-up-baseline): (2.82%) | change of palpitation 0, number of patients (Follow-up-baseline): 677 | change of palpitation 0, percent of patients (Follow-up-baseline): (48.71%) | change of palpitation 1, number of patients (Follow-up-baseline): 516 | change of palpitation 1, percent of patients (Follow-up-baseline): (37.12%) | change of palpitation 2, number of patients (Follow-up-baseline): 93 | change of palpitation 2, percent of patients (Follow-up-baseline): (6.69%) | change of palpitation 3, number of patients (Follow-up-baseline): 14 | change of palpitation 3, percent of patients (Follow-up-baseline): (1.01%) | change of palpitation −1, number of patients (Follow-up-baseline): 86 | change of palpitation −1, percent of patients (Follow-up-baseline): (6.19%) | change of palpitation −2, number of patients (Follow-up-baseline): 3 | change of palpitation −2, percent of patients (Follow-up-baseline): (0.22%) | change of palpitation −3, number of patients (Follow-up-baseline): 1 | change of palpitation −3, percent of patients (Follow-up-baseline): (0.07%) | change of short breath 0, % of patients (Follow-up-baseline): (52.12%) | change of short breath 0, number of patients (Follow-up-baseline): 725 | change of short breath 2, % of patients (Follow-up-baseline): (36.45%) | change of short breath 2, number of patients (Follow-up-baseline): 507 | change of short breath 4, % of patients (Follow-up-baseline): (5.46%) | change of short breath 4, number of patients (Follow-up-baseline): 76 | change of short breath 6, % of patients (Follow-up-baseline): (0.72%) | change of short breath 6, number of patients (Follow-up-baseline): 10 | change of short breath −2, % of patients (Follow-up-baseline): (5.10%) | change of short breath −2, number of patients (Follow-up-baseline): 71 | change of short breath −4, % of patients (Follow-up-baseline): (0.00%) | change of short breath −4, number of patients (Follow-up-baseline): 0 | change of short breath −6, % of patients (Follow-up-baseline): (0.14%) | change of short breath −6, number of patients (Follow-up-baseline): 2 | change of spontaneous perspiration 0, number of patients (Follow-up-baseline): 644 | change of spontaneous perspiration 0, percent of patients (Follow-up-baseline): (46.33%) | change of spontaneous perspiration 1, number of patients (Follow-up-baseline): 451 | change of spontaneous perspiration 1, percent of patients (Follow-up-baseline): (32.45%) | change of spontaneous perspiration 2, number of patients (Follow-up-baseline): 138 | change of spontaneous perspiration 2, percent of patients (Follow-up-baseline): (9.93%) | change of spontaneous perspiration 3, number of patients (Follow-up-baseline): 31 | change of spontaneous perspiration 3, percent of patients (Follow-up-baseline): (2.23%) | change of spontaneous perspiration −1, percent of patients (Follow-up-baseline): (8.35%) | change of spontaneous perspiration −2, number of patients (Follow-up-baseline): 8 | change of spontaneous perspiration −2, percent of patients (Follow-up-baseline): (0.58%) | change of spontaneous perspiration −3, number of patients (Follow-up-baseline): 2 | change of spontaneous perspiration −3, percent of patients (Follow-up-baseline): (0.14%) | change of total score of TCM symptom, Max (Follow-up-baseline): 27.00 | change of total score of TCM symptom, Md (Follow-up-baseline): −5.00 | change of total score of TCM symptom, Mean (Follow-up-baseline): −6.16 | change of total score of TCM symptom, Min (Follow-up-baseline): −29.00
